One assay addresses kinesin. Conditions: comparison value, source not given; read-out: inhibition constant Ki (other inhibitors); cited from earlier work.
Assay [1] deals with T1, Drosophila sp. kinesin K401-BCCP-His6 (K401-biotin carboxyl carrier protein-His6) (Drosophila melanogaster, UniProt P17210).
T1 construct: motor domain, neck linker and part of the coiled coil) of kinesin-1 heavy chain fused to biotin carboxyl carrier protein (BCCP, from E. coli in the known construct) and a His6 tag; microtubules and ATP present
Put plainly: Michaelis-Menten kinetics of kinesin on poly(OH-EDOT) surface from microtubule gliding speeds at varied ATP concentration. The format is biochemical. The source says: The protein ensemble (streptavidin, BSA, Drosophila kinesin K401-biotin carboxyl carrier protein (BCCP)-His6 and MTs) was deposited onto the conducting polymer surface (initially doped) using standard flow or droplet deposition methods. Flow cells were assembled using double-sided tape as a spacer creating a channel of approximate dimensions 5 mm×10 mm×0.04 mm. For the non-electrochemical assays, the poly(OH-EDOT)/PET substrate was placed on a glass slide with the conducting polymer layer down. The proteins were introduced using the standard capillary-flow technique. The buffer for all experiments was BRB80 (80 mM Pipes, 2 mM MgCl2, 1 mM EGTA, pH 6.95 with KOH). The flow cells were sequentially filled with a streptavidin solution (Streptomyces avidinii, Sigma-Aldrich, 1.0 mg/mL in BRB80, 10 min deposition time), BSA solution (Sigma-Aldrich, 1.0 mg/mL in BRB80, 10 min deposition time), standard kinesin solution (40 μg/mL kinesin K401-BCCP-His6 with 1 mM ATP in BRB80, 10 min deposition time), and finally a motility buffer with rhodamine-labeled microtubules (1-10 μm in length), containing 1 mM ATP and stabilized with 10 μM Taxol with oxygen scavenging additives (20 mM D-glucose, 20 μg/mL glucose oxidase, 8 μg/mL catalase, 0.2% 2-mercaptoethanol). Flow cells were sealed with immersion oil to prevent evaporation. The assays were performed at room temperature (21° C.).
It has recently been well established that as kinesin hydrolyzes a single ATP molecule, it induces an eight-nanometer movement of a microtubule. Therefore enzyme activity can be indirectly assayed by simply determining the average speed of a large population of microtubules. This was done using fluorescently-labeled microtubules, and their gliding speeds were then carefully measured using confocal microscopy. Microtubules were visualized on the conducting polymer using an Olympus Opelco BX51 fluorescence microscope and their speeds quantified using Metamorph image analysis software (Universal Imaging, Downingtown, Pa.). This assay method was then combined with a transparent electrochemical cell containing a poly(OH-EDOT) support. The poly(OH-EDOT) was ˜80% transparent in the visible range, allowing the microtubules to be easily seen and their speeds measured. […] The surface was then electrochemically doped by applying a bias of […] for 1 minute. The average microtubule speed was measured and found to be 0.40 μm/sec. The resulting ratio in speed differences (dedoped vs. doped surfaces) is 1.55, a striking exact correlation with the ATP hydrolysis ratios on the two surfaces. The surface was then cycled between the two states once more to give an overall cycling history of −1.0 V, +1.0 V, −1.0 V, +1.0 V with corresponding polymer states dedoped, doped, dedoped, doped (FIG. 3). For the second doping cycle the microtubule speeds were 0.63 (dedoped) and 0.40 (doped), giving a speed difference ratio of […].
At this point it was clear that the polymer surface was exerting a direct, reversible effect on the kinesin protein itself. The nature of this influence was examined by treating the charged species in the doped polymer form (the radical cation, or polaron) as an inhibitor, and quantified the enzyme kinetics in terms of Michaelis-Menten parameters. First, the surface concentration of the polarons was calculated using the established value of one polaron per four polymer repeat units for fully doped thiophene-type polymers. […] If one then encloses a kinesin molecule in a cube 30 nm per side and considers the polarons on the 30 nm×30 nm surface region to be distributed in the cube volume, an apparent local polaron concentration ([Iapp]) of 3.89 mM is obtained.
The Michaelis-Menten analysis assumes a kinetic model of the type shown in FIG. 5 (E=enzyme, ES=enzyme-substrate complex, P=product, kcat=catalytic turnover rate constant, Dstep=8 nm, Km=Michaelis constant). The kinetics of most enzymes, including kinesin, is accurately described with this model. […]

[2] abbreviates: substrate ATP, doped vs dedoped surface.

By Ki is commonly meant a dissociation constant, usually derived from enzyme kinetics or from competition with a known ligand.

T1 sequence (P17210 1-401): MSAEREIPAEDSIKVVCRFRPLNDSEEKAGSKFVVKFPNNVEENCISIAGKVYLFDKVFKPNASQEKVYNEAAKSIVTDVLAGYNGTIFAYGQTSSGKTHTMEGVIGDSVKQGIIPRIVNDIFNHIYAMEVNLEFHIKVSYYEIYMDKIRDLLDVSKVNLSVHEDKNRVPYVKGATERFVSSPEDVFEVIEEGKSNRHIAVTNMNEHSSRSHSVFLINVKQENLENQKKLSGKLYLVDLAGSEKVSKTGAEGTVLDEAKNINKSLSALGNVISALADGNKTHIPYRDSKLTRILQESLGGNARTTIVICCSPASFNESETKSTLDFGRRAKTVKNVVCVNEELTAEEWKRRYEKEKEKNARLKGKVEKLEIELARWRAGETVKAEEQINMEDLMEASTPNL

As to `O=P(O)(O)O` [PO4^2−], the inhibition constant (Ki) on kinesin is 9.3 mM.
Consider `Nc1ncnc2c1ncn2[C@@H]1O[C@H](COP(=O)(O)OP(=O)(O)OP(=O)(O)O)[C@@H](O)[C@H]1O` [ATP, adenosine triphosphate], for which the Speedmax dedoped in assay [1] (dedoped poly(OH-EDOT) surface, microtubule speed at infinite ATP concentration, 21° C., BRB80 pH 6.95) is reported as 0.943 μm/s ± 0.05. Further, the Speedmax doped in assay [1] (doped poly(OH-EDOT) surface, microtubule speed at infinite ATP concentration, 21° C., BRB80 pH 6.95) was 0.600 μm/s ± 0.03. In addition, in assay [1] (substrate ATP, dedoped poly(OH-EDOT) surface, 8 nm step per ATP hydrolyzed), the kcat dedoped is on record as 118 sec^−1 ± 6. Also, in assay [1] (substrate ATP, doped poly(OH-EDOT) surface, 8 nm step per ATP hydrolyzed), the kcat doped is on record as 75.0 sec^−1 ± 3. Also, in assay [1] (setting [2]), the “Km app doped lower than Km dedoped” value is recorded as “ca. 35%” and the “kcat doped lower than kcat dedoped” value was “ca. 36%”.
Regarding `Nc1ncnc2c1ncn2[C@@H]1O[C@H](COP(=O)(O)OP(=O)(O)O)[C@@H](O)[C@H]1O` [ADP, adenosine diphosphate], the Ki at kinesin is 0.048 mM.

Source of the values: US8709740B2, “Control of protein activity using a conducting polymer” (The United States of America, as represented by the …, priority 2005, dated 2014).
